Results as given in patent publication US20210071229A1, “FIBRINOGEN TEST” (DSM IP Assets B.V., priority 2018, published 2021).
“And” between values parts separate entries of the source, which are not always exact repeats. Identical values can stand only once. Like-named read-outs stand apart in the source and are kept apart here.

How the values were obtained:
[1] = target: batroxobin (Bothrops atrox, UniProt P04971); type: biochemical, Bothrops moojeni
[2] = test system: control plasma
[3] = test system: control plasma; experiment: activated Partial Thromboplastin Time (aPTT) clotting test, spiked control plasma, BCS-XP; type: biochemical

batroxobin, sequence (P04971 25-255 limits assumed): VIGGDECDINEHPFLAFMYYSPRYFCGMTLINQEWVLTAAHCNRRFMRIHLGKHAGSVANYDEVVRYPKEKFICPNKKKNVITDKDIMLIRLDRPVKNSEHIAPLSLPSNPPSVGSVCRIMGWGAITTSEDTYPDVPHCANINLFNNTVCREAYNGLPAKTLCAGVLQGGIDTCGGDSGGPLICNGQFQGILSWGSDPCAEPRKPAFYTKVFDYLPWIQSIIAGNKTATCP

Question: What does the source list for `NCCCCCC(=O)O` [6-aminocaproic acid]?
Answer: effect on enzyme activity of batroxobin vs untreated control [1]: did not significantly influence the activity; predicted Vmax and Km vs untreated control [1]: not significantly different

Question: With `CC1CNc2c(cccc2S(=O)(=O)N[C@@H](CCCNC(=N)N)C(=O)N2CC[C@@H](C)C[C@@H]2C(=O)O)C1` (some centres unmarked) [Argatroban] as the compound, how does the “effect on Vmax of batroxobin-Pefachrome TH substrate” value [1] read?
Answer: very slight reduction

Question: What about the “effect on enzyme activity of batroxobin” value [1] of the same compound?
Answer: did not significantly suppress

Question: What about the “effect on Km of batroxobin-Pefachrome TH substrate” value ([1]; 0.13-2.0 μg/mL) of the same compound?
Answer: not significantly affected

Question: What about the “PT-test CT” value ([2]; 0.13 μg/ml in plasma) of the same compound?
Answer: 10.18 s and 10.21 s

Question: What about the “PT-test Mean” value ([2]; 0.13 μg/ml in plasma) of the same compound?
Answer: 10.20 s

Question: And the PT-test delay ([2]; 0.13 μg/ml in plasma)?
Answer: 1%

Question: And the “PT-test CT” value ([2]; 2.0 μg/ml in plasma)?
Answer: 12.26 s and 12.24 s

Question: And the “PT-test Mean” value ([2]; 2.0 μg/ml in plasma)?
Answer: 12.25 s

Question: And the PT-test delay ([2]; 2.0 μg/ml in plasma)?
Answer: 22%

Question: And the “aPTT-test CT” value ([3]; 0.13 μg/ml in plasma)?
Answer: 34.62 s

Question: What about the “aPTT-test Mean” value ([3]; 0.13 μg/ml in plasma) of the same compound?
Answer: 34.62 s

Question: And the aPTT-test delay ([3]; 0.13 μg/ml in plasma)?
Answer: 8%

Question: And the “aPTT-test CT” value ([3]; 2.0 μg/ml in plasma)?
Answer: 55.77 s and 55.46 s

Question: What about the “aPTT-test Mean” value ([3]; 2.0 μg/ml in plasma) of the same compound?
Answer: 55.62 s

Question: And the aPTT-test delay ([3]; 2.0 μg/ml in plasma)?
Answer: 73%

Question: With `[H]/N=C(/N)c1ccc(NCc2nc3cc(C(=O)N(CCC(=O)O)c4ccccn4)ccc3n2C)cc1` [Dabigatran] as the compound, how does the “effect on Km of batroxobin-Pefachrome TH substrate” value ([1]; 31-500 ng/mL) read?
Answer: not significantly affected

Question: How did the “interference in batroxobin-Pefachrome TH reaction” value (from here on “interference”) [1] turn out when `O=C(O)CN(CCN(CC(=O)O)CC(=O)O)CC(=O)O` [EDTA] was run?
Answer: failed to see significant interference

Question: Which results are given for `O=C(NC[C@H]1CN(c2ccc(N3CCOCC3=O)cc2)C(=O)O1)c1ccc(Cl)s1` [Rivaroxaban]?
Answer: effect on Vmax of batroxobin-Pefachrome TH substrate [1]: very slight reduction; effect on enzyme activity of batroxobin [1]: did not significantly suppress; effect on Km of batroxobin-Pefachrome TH substrate ([1]; 38-600 ng/mL): not significantly affected; PT-test CT ([2]; 38 ng/ml in plasma): 10.74 s and 10.61 s; PT-test Mean ([2]; 38 ng/ml in plasma): 10.68 s; PT-test delay ([2]; 38 ng/ml in plasma): 6%; PT-test CT ([2]; 600 ng/ml in plasma): 19.42 s and 19.32 s; PT-test Mean ([2]; 600 ng/ml in plasma): 19.37 s; PT-test delay ([2]; 600 ng/ml in plasma): 92%; aPTT-test CT ([3]; 38 ng/ml in plasma): 39.46 s and 39.44 s; aPTT-test Mean ([3]; 38 ng/ml in plasma): 39.45 s; aPTT-test delay ([3]; 38 ng/ml in plasma): 23%; aPTT-test CT ([3]; 600 ng/ml in plasma): 80.73 s and 80.07 s; aPTT-test Mean ([3]; 600 ng/ml in plasma): 80.40 s; aPTT-test delay ([3]; 600 ng/ml in plasma): 150%

Question: Which “effect on enzyme activity of batroxobin vs untreated control” value [1] does the source give for aprotinin here?
Answer: did not significantly influence the activity

Question: And the “predicted Vmax and Km vs untreated control” value [1]?
Answer: not significantly different

Question: For hirudin, which “interference” value [1] is on record?
Answer: failed to see significant interference

Question: With hydroxyethyl starch [HES] as the compound, how does the “interference” value [1] read?
Answer: failed to see significant interference
